From US7601739B2, “Compounds having antiestrogenic and tissue selective estrogenic properties, and compounds with anti-androgenic properties for treatment of prostate cancer and androgen receptor dependent diseases” (Virgina Commonwealth University, priority 2006, dated 2009) come the findings set out here.

In experiment [1] the test system is MCF-7 cells. Kind of experiment: hERα positive breast cancer cell proliferation assay. The class given is cell-based, human. The note with it: for activity at 5 µM: Homo sapiens, MCF7, 72 h, MCF-7 cells, DMSO = 1, read-out: Relative Cancer Cell Proliferation Effects at 5 μM. The method, then: (§1) MCF-7 or MDA-MB-231 cells were inoculated into 12-well culture plates at 10000 cells in 2 ml maintained medium per well. Cells were allowed to attach to the bottom for 24 hrs incubation, then the seeding medium was removed and replaced by the experimental medium (phenol red-free DMEM supplemented with 5% charcoal-stripped fetal bovine serum and Penicillin (100 unit/ml)/Streptomycin ([…])). After 24 hr incubation, the test molecules dissolved in DMSO were added in the wells. […] The culture was continued for 3 days and the medium and tested compounds were replaced every two days. The final cell numbers were estimated with CellTiter proliferation assay kit (Promega, Madison, Wis.) by measuring the absorbance at 570 nm, which is directly proportional to the number of living cells in the culture.
MCF-7 cell line was used to perform this assay and the description of this assay as mentioned above. […] DMSO was used as reference.

The target in experiment [2] is T1, hERα (Homo sapiens, UniProt P03372).
T1 construct: mammalian expression plasmid containing full length human ER cDNA, pCMV-hER; expressed in transfected cells; host or cells: MCF-7 human breast cancer cells
T1 sequence (P03372 1-595): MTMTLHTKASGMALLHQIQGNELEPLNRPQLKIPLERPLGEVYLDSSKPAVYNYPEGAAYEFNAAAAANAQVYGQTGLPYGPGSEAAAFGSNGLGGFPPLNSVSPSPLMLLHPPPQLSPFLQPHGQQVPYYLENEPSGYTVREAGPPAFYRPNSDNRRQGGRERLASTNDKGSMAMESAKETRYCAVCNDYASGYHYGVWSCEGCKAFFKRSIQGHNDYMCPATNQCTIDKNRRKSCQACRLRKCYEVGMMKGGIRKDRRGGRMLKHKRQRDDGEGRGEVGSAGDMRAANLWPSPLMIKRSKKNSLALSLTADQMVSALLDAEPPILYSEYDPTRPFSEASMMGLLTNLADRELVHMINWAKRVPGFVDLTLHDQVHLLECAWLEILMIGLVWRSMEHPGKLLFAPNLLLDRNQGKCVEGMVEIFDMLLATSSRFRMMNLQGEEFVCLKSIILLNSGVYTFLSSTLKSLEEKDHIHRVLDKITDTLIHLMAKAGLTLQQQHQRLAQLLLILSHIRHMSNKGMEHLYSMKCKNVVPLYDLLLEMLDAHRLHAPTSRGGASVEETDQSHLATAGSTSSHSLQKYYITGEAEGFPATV
Description: Transient transfection reporter assay for hERα in MCF-7 cells. The conditions noted are these: for Relative Estrogenic Activity: MCF-7 cells transfected with hERα, DMSO set as 1; for estrogenic effect: compared with DMSO and tamoxifen; for Relative Antiestrogenic Activity at 2.5 μM: with 1 nM estradiol, 1 nM E2 used as reference (1). Further details: Relative Estrogenic Activity: dose or concentration left out as unconfirmed. The class given is cell-based. The protocol: For the transient transfection reporter assays, the cells were plated in triplicate in 12-well plates at a density of 300000 cells/well in the phenol red-free DMEM (GIBCO/BRL, Grand Island, N.Y.) supplemented with 10% charcoal-stripped fetal bovine serum (Hyclone, Logan, Utah), Penicillin (100 unit/ml)/Streptomycin ([…]), 2 mML-glutamine and 1 mM sodium Pyruvate. 24 hrs later, the cells were transfected with three plasmids by using Superfect transfection kit (Qiagen, Valencia, Calif.). For the detection of hER activity, cells were transfected with 2 g hER expression plasmid (pCMV-ER ), 6 g luciferase reporter plasmid containing estrogen receptor response element (PGL-TATA-Luc), and 600 ng normalization control, β-galactosidase reporter plasmid (pCMV ). For the detection of hER activity, cells were transfected with 3 ug hER expression plasmid (pcDNA3.1-hER), 6 g luciferase reporter plasmid containing estrogen receptor response element (PGL-TATA-Luc), and 600 ng pCMV. For determining the influence of ER's major coactivator in breast, AIB 1, 2 g pcDNA3.1-AIB1 was added into the transfection plasmid solution mentioned previously.
The transfected cells were rinsed with PBS and treated with various concentrations of test molecules and one […] (vehicle, DMSO or methanol) in phenol red-free culture medium. After incubation for further 24 hrs, the cells were washed with PBS and lysed with lysis buffer (Pierce, Rockford, Ill.). The lysate was used to determine the luciferase activity for ER's activity and the β-galactosidase activity for the normalization of transfection efficiency.
For the luciferase activity assay, 20 μl of lysate and 100 μl luciferase assay buffer (Promega, Madison, Wis.) were added into a well of 96-well plate. The luminescence was detected by using luminescence microplate reader, LumiCount (Packard, Boston, Mass.). For the β-galactosidase activity assay, […] β-galactosidase assay buffer (Clontech, Palo Alto, Calif.) were added into a well of 96-well plate. The β-galactosidase activity was measured as luminescence strength by using luminescence microplate reader, LumiCount (Packard, Boston, Mass.). The normalized reporter activity was calculated by the luciferase activity divided by that of β-galactosidase.
The transient transfection reporter assay was used to determine the estrogenic or antiestrogenic activity of tested compounds in employed human breast cancer cells, MCF-7 cells that are cotransfected with hERα expression and reporter plasmids. […] […] The estrogenic (antiestrogenic) activity was determined by dividing the luciferase activity by the β-galactosidase activity. To determine the influence of estrogen receptor's major coactivator in breast cancer, AIB1, for the compounds' estrogenic activity, the expression vector of AIB1 was additionally cotransfected with the plasmids mentioned above.
For orientation: A reporter such as luciferase makes a cellular process visible.

For experiment [3], the system named is hER. Kind of experiment: Fluorescence-based competitive binding assay for hER (displacement of fluormone ES2). Further details: species or system human. The note with it: RBA = IC50 of tamoxifen/IC50 of test molecule; tamoxifen set at 1. The method, then:
The estrogen receptor competitor assay kits (Panvera, Madison, Wis.) were used to determine the ability of test molecules to displace the fluormone, ES2, from hER -ES2 or hER -ES2 complex. Serial dilutions of each test molecule were prepared in methanol or DMSO. The recombinant hER or hER (7 nM) was preincubated with ES2 (1 nM) in screening buffer. After the preincubation, the test molecules and ER-ES2 complex solution were added into the 96-well microplate to produce a final volume of 100 μl per well. The reaction was incubated at room temperature for 1 hr and the polarization values were measured by using fluorescence microplate reader, Polarion (Tecan, Research Triangle Park, N.C.) with excitation wavelength 495 nm and emission wavelength 535 nm. The polarization value versus test molecule concentration curves was analyzed by graphfit software to generate IC50 values.
In this assay, recombinant hER and the commercial synthetic estrogen, ES2 containing fluorescence polarization property, are used. This assay is a homogenous assay. When the assay solution only contains ES2, the solution exerts weak fluorescence polarization property due to the quick rotation of free ES2 molecule. […] Addition of the antiestrogen to the ES2/hER displaces ES2 from hER and results in the whole solution exerting less fluorescence polarization property than the solution without antiestrogen.

Experiment [4] deals with MDA-MB-231 cells. Description: hER negative breast cancer cell proliferation assay. Format: cell-based, human. The note with it: hER negative cell line. The method, then: as §1
In this assay, MDA-MB-231 breast cancer cell line, a hER negative cell line, was used. DMSO was used as reference.

On to `CCCCNC(=O)CCCCCCCCCCOCC1Cc2ccccc2CN1C(=O)c1ccc(OC)cc1` (stereo not drawn) [Compound 5], for which the activity at 5 µM in experiment [1] amounted to 98%. In experiment [2], the “Relative Estrogenic Activity” value came out at 1.06 and the “Relative Antiestrogenic Activity at 2.5 μM” value worked out at 1.64. Further, the “estrogenic effect” value in experiment [2] (MCF-7 cells, hERα) is listed as “do not exert any estrogenic effects”. For the same compound, the “Relative Binding Affinity” value in experiment [3] is 0.14.

Take `CCCCNC(=O)CCCCCCCCCCOCC1Cc2ccccc2CN1C(=O)c1ccc(F)cc1` (stereo not drawn) [Compound 3]: in experiment [1], the “inhibition effects against MCF-7 cell proliferation” value (shortened to “inhibition effects”) is “slight inhibition effects” and the activity at 5 µM stood at 91%. Besides, in experiment [2], the “Relative Estrogenic Activity” value came out at 1.09 and the “Relative Antiestrogenic Activity at 2.5 μM” value is on record as 0.93. In experiment [2] (MCF-7 cells, hERα), the “estrogenic effect” value is recorded as “do not exert any estrogenic effects”. Besides, in experiment [3], the “Relative Binding Affinity” value stood at 0.264.

Regarding `CCCCNC(=O)CCCCCCCCCCOCC1Cc2ccccc2CN1C(=O)c1cccc(Cl)c1` (stereo not drawn) [Compound 10, 11-[2-(3-Chloro-benzoyl)-1,2,3,4tetrahydro-isoquinolin-3-ylmethoxy]-undecanoic acid butylamide], in experiment [1], the “inhibition effects” value was “slight inhibition effects” and the activity at 5 µM is 86%. Moreover, in experiment [2], the “Relative Estrogenic Activity” value was 0.68 and the “Relative Antiestrogenic Activity at 2.5 μM” value turned out to be 0.83. In experiment [2] (MCF-7 cells, hERα), the “estrogenic effect” value is “do not exert any estrogenic effects”. In addition, the “Relative Binding Affinity” value in experiment [3] was found to be 0.156.

Consider `CCCCNC(=O)CCCCCCCCCCOCC1Cc2ccccc2CN1C(=O)c1cccc(C)c1` (stereo not drawn) [Compound 8, 11-[2-(3-Methyl-benzoyl)-1,2,3,4tetrahydro-isoquinolin-3-ylmethoxy]-undecanoic acid butylanide], for which, in experiment [1], the “inhibition effects” value was “slight inhibition effects” and the activity at 5 µM amounted to 84%. Further, in experiment [2], the “Relative Estrogenic Activity” value was 1.32 and the “Relative Antiestrogenic Activity at 2.5 μM” value is recorded as 0.75. Moreover, the “antiestrogenic / inhibition activity” value in experiment [2] (against 1 nM estrogen) is given as “moderate antiestrogenic effect”. In experiment [3], the “Relative Binding Affinity” value is 0.156.

For the compound `CCCCNC(=O)CCCCCCCCCCOCC1Cc2ccccc2CN1C(=O)Cc1cccc(F)c1` (stereo not drawn) [Compound 12, 11-{2-[2-(3-Fluoro-phenyl)-acetyl]-1,2,3,4-tetrahydro-isoquinolin-3-ylmethoxy]-undecanoic acid butylamide], the activity at 5 µM in experiment [1] came to 120%. Also, in experiment [2], the “Relative Estrogenic Activity” value is reported as 1.68 and the “Relative Antiestrogenic Activity at 2.5 μM” value is 1.01. Also, the “Relative Binding Affinity” value in experiment [3] is given as 0.267.

As to `CCCCNC(=O)CCCCCCCCCCOCC1Cc2ccccc2CN1C(=O)c1ccccc1F` (stereo not drawn) [Compound 1], the activity at 5 µM in experiment [1] came out at 106%. Also, in experiment [2], the “Relative Estrogenic Activity” value was found to be 1.02 and the “Relative Antiestrogenic Activity at 2.5 μM” value is 1.17. In experiment [2] (MCF-7 cells, hERα), the “antiestrogenic activity against various concentrations of estrogen (FIG. 4)” value is given as “can antagonize estrogen's action in a dose dependent manner” and the “estrogenic effect” value was “do not exert any estrogenic effects”. In experiment [3], the “Relative Binding Affinity” value is reported as 0.225.

Take `CC/C(=C(\c1ccccc1)c1ccc(OCCN(C)C)cc1)c1ccccc1` [Tamoxifen, reference compound]: the activity at 5 µM in experiment [1] is 42%. The “inhibition of MCF-7 cell proliferation” value in experiment [1] (relative to DMSO) amounted to 58%. In addition, the “proliferation effects against MDA-MB-231 cells (FIG. 6, words)” value in experiment [4] is “moderate anti-proliferation effects”.

For the compound `CCCCNC(=O)CCCCCCCCCCOCC1Cc2ccccc2CN1C(=O)c1ccc(C)cc1` (stereo not drawn) [Compound 9, 11-[2-(4-Methyl-benzoyl)-1,2,3,4-tetrahydro-isoquinolin-3-ylmethoxy]-undecanoic acid butylamide], the activity at 5 µM in experiment [1] was determined as 101%. In addition, in experiment [2], the “Relative Estrogenic Activity” value was 1.72 and the “Relative Antiestrogenic Activity at 2.5 μM” value is on record as 1.34. Also, in experiment [3], the “Relative Binding Affinity” value amounted to 0.132.

`CCCCCCCCNC(=O)CCCCCCCCCCOCC1Cc2ccccc2CN1C(=O)c1cccc(F)c1` (stereo not drawn) [Compound 11, 11-[2-(3-Fluoro-benzoyl)-1,2,3,4-tetrahydro-isoquinolin-3-ylmethoxy]-undecanoic acid octylamide]: the activity at 5 µM in experiment [1] came out at 100%. In addition, in experiment [2], the “Relative Estrogenic Activity” value is on record as 0.83 and the “Relative Antiestrogenic Activity at 2.5 μM” value is given as 1.11. The “estrogenic effect” value in experiment [2] (MCF-7 cells, hERα) is on record as “do not exert any estrogenic effects”. Besides, the “Relative Binding Affinity” value in experiment [3] amounted to 0.177.
